# In patent US10131652B2, “Pyrimidinyloxy benzene derivatives as herbicides” (E. I. DU PONT DE NEMOURS AND COMPANY, priority 2014, dated 2018):
# Read-outs that look alike come from different tables or passages of the source.
# What was measured:
# Assay in all cases: Test E pre-/postemergence plant response
# Assay type in all cases: in vivo
# [1] = test system: chickweed (common chickweed, Stellaria media); settings: scale 0 to 100, read-out: Plant response rating, Chickweed; for pest or weed control at 16 g/ha: 16 g ai/ha; for pest or weed control at 31 g/ha: 31 g ai/ha; for pest or weed control at 62 g/ha: 62 g ai/ha; for pest or weed control at 125 g/ha: 125 g ai/ha
# How it was run: (§1)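 Visual scores on a 0–100 scale (100 = complete control) were assigned against untreated controls 7–21 days after treatment in a controlled environment. Compounds, formulated with solvent plus surfactant, were applied to pre-emergence silt-loam sowings or to 1- to 4-leaf plants (2–18 cm) in potting medium.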
# [2] = test system: speedwell (bird's-eye speedwell, Veronica persica); settings: scale 0 to 100, read-out: Plant response rating, Speedwell; for pest or weed control at 16 g/ha: 16 g ai/ha; for pest or weed control at 62 g/ha: 62 g ai/ha; for pest or weed control at 125 g/ha: 125 g ai/ha
# How it was run: as §1
# [3] = test system: spring barley (Hordeum vulgare); settings: for plant injury at 16 g/ha: 16 g ai/ha; for plant injury at 31 g/ha: 31 g ai/ha; for plant injury at 62 g/ha: 62 g ai/ha; for plant injury at 125 g/ha: 125 g ai/ha
# How it was run: as §1
# [4] = test system: windgrass (Apera spica-venti); settings: scale 0 to 100, read-out: Plant response rating, Windgrass; for pest or weed control at 16 g/ha: 16 g ai/ha; for pest or weed control at 62 g/ha: 62 g ai/ha; for pest or weed control at 125 g/ha: 125 g ai/ha
# How it was run: as §1
# [5] = test system: galium (catchweed bedstraw, Galium aparine); settings: scale 0 to 100, read-out: Plant response rating, Galium; for pest or weed control at 16 g/ha: 16 g ai/ha; for pest or weed control at 31 g/ha: 31 g ai/ha; for pest or weed control at 62 g/ha: 62 g ai/ha; for pest or weed control at 125 g/ha: 125 g ai/ha
# How it was run: as §1
# [6] = test system: bluegrass (annual bluegrass, Poa annua); settings: scale 0 to 100, read-out: Plant response rating, Bluegrass; for pest or weed control at 16 g/ha: 16 g ai/ha; for pest or weed control at 31 g/ha: 31 g ai/ha; for pest or weed control at 62 g/ha: 62 g ai/ha; for pest or weed control at 125 g/ha: 125 g ai/ha
# How it was run: as §1
# [7] = test system: wild mustard (Sinapis arvensis); settings: Brassica, scale 0 to 100, read-out: Plant response rating, Mustard, Wild; for pest or weed control at 16 g/ha: 16 g ai/ha; for pest or weed control at 31 g/ha: 31 g ai/ha; for pest or weed control at 62 g/ha: 62 g ai/ha; for pest or weed control at 125 g/ha: 125 g ai/ha
# How it was run: as §1
# [8] = test system: winter barley (Hordeum vulgare); settings: scale 0 to 100, read-out: Plant response rating, Barley, Winter; for plant injury at 16 g/ha: 16 g ai/ha; for plant injury at 31 g/ha: 31 g ai/ha; for plant injury at 62 g/ha: 62 g ai/ha; for plant injury at 125 g/ha: 125 g ai/ha
# How it was run: as §1
# [9] = test system: downy bromegrass (Bromus tectorum); settings: scale 0 to 100, read-out: Plant response rating, Bromegrass, Downy; for pest or weed control at 16 g/ha: 16 g ai/ha; for pest or weed control at 31 g/ha: 31 g ai/ha; for pest or weed control at 62 g/ha: 62 g ai/ha; for pest or weed control at 125 g/ha: 125 g ai/ha
# How it was run: as §1
# [10] = test system: canarygrass (Phalaris minor); settings: scale 0 to 100, read-out: Plant response rating, Canarygrass; for pest or weed control at 16 g/ha: 16 g ai/ha; for pest or weed control at 31 g/ha: 31 g ai/ha; for pest or weed control at 62 g/ha: 62 g ai/ha; for pest or weed control at 125 g/ha: 125 g ai/ha
# How it was run: as §1
# [11] = post-emergence, 31 g ai/ha, Postemergence
# [12] = post-emergence, Postemergence, scale 0 to 100, read-out: Plant response rating, Barley, Spring
# [13] = pre-emergence, Preemergence, scale 0 to 100, read-out: Plant response rating, Barley, Spring
compound,measurement,setting,value
"FC(F)c1cc(-c2ccccc2Oc2ncc(Cl)cn2)on1 [Compound 53, 5-chloro-2-[2-[3-(difluoromethyl)-5-isoxazolyl]phenoxy]pyrimidine]",pest or weed control at 16 g/ha,"[1]; post-emergence, Postemergence",30%
same,pest or weed control at 31 g/ha,"[1]; post-emergence, Postemergence",50%
same,pest or weed control at 62 g/ha,"[1]; post-emergence, Postemergence",60%
same,pest or weed control at 125 g/ha,"[1]; post-emergence, Postemergence",65%
same,pest or weed control at 16 g/ha,"[1]; pre-emergence, Preemergence",100%
same,pest or weed control at 31 g/ha,"[1]; pre-emergence, Preemergence",100%
same,pest or weed control at 62 g/ha,"[1]; pre-emergence, Preemergence",100%
same,pest or weed control at 125 g/ha,"[1]; pre-emergence, Preemergence",100%
same,pest or weed control at 16 g/ha,"[2]; post-emergence, Postemergence",60%
same,pest or weed control at 31 g/ha,[2]; [11],60%
same,pest or weed control at 62 g/ha,"[2]; post-emergence, Postemergence",95%
same,pest or weed control at 125 g/ha,"[2]; post-emergence, Postemergence",100%
same,pest or weed control at 16 g/ha,"[2]; pre-emergence, Preemergence",100%
same,pest or weed control at 62 g/ha,"[2]; pre-emergence, Preemergence",100%
same,pest or weed control at 125 g/ha,"[2]; pre-emergence, Preemergence",100%
same,plant injury at 16 g/ha,[3]; [12],5%
same,plant injury at 31 g/ha,[3]; [12],5%
same,plant injury at 62 g/ha,[3]; [12],10%
same,plant injury at 125 g/ha,"[3]; post-emergence, Postemergence, scale 0 to 100 (0 no effect, 100 complete control), read-out: Plant response rating, Barley, Spring",10%
same,plant injury at 16 g/ha,[3]; [13],35%
same,plant injury at 31 g/ha,[3]; [13],35%
same,plant injury at 62 g/ha,[3]; [13],35%
same,plant injury at 125 g/ha,[3]; [13],35%
same,pest or weed control at 16 g/ha,"[4]; post-emergence, Postemergence",5%
same,pest or weed control at 31 g/ha,[4]; [11],5%
same,pest or weed control at 62 g/ha,"[4]; post-emergence, Postemergence",10%
same,pest or weed control at 125 g/ha,"[4]; post-emergence, Postemergence",20%
same,pest or weed control at 16 g/ha,"[4]; pre-emergence, Preemergence",0%
same,pest or weed control at 62 g/ha,"[4]; pre-emergence, Preemergence",35%
same,pest or weed control at 125 g/ha,"[4]; pre-emergence, Preemergence",50%
same,pest or weed control at 16 g/ha,"[5]; post-emergence, Postemergence",75%
same,pest or weed control at 31 g/ha,"[5]; post-emergence, Postemergence",75%
same,pest or weed control at 62 g/ha,"[5]; post-emergence, Postemergence",75%
same,pest or weed control at 125 g/ha,"[5]; post-emergence, Postemergence",75%
same,pest or weed control at 16 g/ha,"[5]; pre-emergence, Preemergence",25%
same,pest or weed control at 31 g/ha,"[5]; pre-emergence, Preemergence",30%
same,pest or weed control at 62 g/ha,"[5]; pre-emergence, Preemergence",60%
same,pest or weed control at 125 g/ha,"[5]; pre-emergence, Preemergence",100%
same,pest or weed control at 16 g/ha,"[6]; post-emergence, Postemergence",0%
same,pest or weed control at 31 g/ha,"[6]; post-emergence, Postemergence",0%
same,pest or weed control at 62 g/ha,"[6]; post-emergence, Postemergence",5%
same,pest or weed control at 125 g/ha,"[6]; post-emergence, Postemergence",5%
same,pest or weed control at 16 g/ha,"[6]; pre-emergence, Preemergence",10%
same,pest or weed control at 31 g/ha,"[6]; pre-emergence, Preemergence",10%
same,pest or weed control at 62 g/ha,"[6]; pre-emergence, Preemergence",20%
same,pest or weed control at 125 g/ha,"[6]; pre-emergence, Preemergence",25%
same,pest or weed control at 16 g/ha,"[7]; post-emergence, Postemergence",65%
same,pest or weed control at 31 g/ha,"[7]; post-emergence, Postemergence",75%
same,pest or weed control at 62 g/ha,"[7]; post-emergence, Postemergence",95%
same,pest or weed control at 125 g/ha,"[7]; post-emergence, Postemergence",95%
same,pest or weed control at 16 g/ha,"[7]; pre-emergence, Preemergence",90%
same,pest or weed control at 31 g/ha,"[7]; pre-emergence, Preemergence",100%
same,pest or weed control at 62 g/ha,"[7]; pre-emergence, Preemergence",100%
same,pest or weed control at 125 g/ha,"[7]; pre-emergence, Preemergence",100%
same,plant injury at 16 g/ha,"[8]; post-emergence, Postemergence",5%
same,plant injury at 31 g/ha,"[8]; post-emergence, Postemergence",5%
same,plant injury at 62 g/ha,"[8]; post-emergence, Postemergence",5%
same,plant injury at 125 g/ha,"[8]; post-emergence, Postemergence",10%
same,plant injury at 16 g/ha,"[8]; pre-emergence, Preemergence",15%
same,plant injury at 31 g/ha,"[8]; pre-emergence, Preemergence",10%
same,plant injury at 62 g/ha,"[8]; pre-emergence, Preemergence",30%
same,plant injury at 125 g/ha,"[8]; pre-emergence, Preemergence",25%
same,pest or weed control at 16 g/ha,"[9]; post-emergence, Postemergence",0%
same,pest or weed control at 31 g/ha,"[9]; post-emergence, Postemergence",0%
same,pest or weed control at 62 g/ha,"[9]; post-emergence, Postemergence",5%
same,pest or weed control at 125 g/ha,"[9]; post-emergence, Postemergence",5%
same,pest or weed control at 16 g/ha,"[9]; pre-emergence, Preemergence",0%
same,pest or weed control at 31 g/ha,"[9]; pre-emergence, Preemergence",15%
same,pest or weed control at 62 g/ha,"[9]; pre-emergence, Preemergence",15%
same,pest or weed control at 125 g/ha,"[9]; pre-emergence, Preemergence",15%
same,pest or weed control at 16 g/ha,"[10]; post-emergence, Postemergence",5%
same,pest or weed control at 31 g/ha,"[10]; post-emergence, Postemergence",10%
same,pest or weed control at 62 g/ha,"[10]; post-emergence, Postemergence",25%
same,pest or weed control at 125 g/ha,"[10]; post-emergence, Postemergence",40%
same,pest or weed control at 16 g/ha,"[10]; pre-emergence, Preemergence",10%
same,pest or weed control at 31 g/ha,"[10]; pre-emergence, Preemergence",20%
same,pest or weed control at 62 g/ha,"[10]; pre-emergence, Preemergence",65%
same,pest or weed control at 125 g/ha,"[10]; pre-emergence, Preemergence",95%
